Measured values as given in patent US20240174684A1, “INHIBITORS OF cGAS ACTIVITY AS THERAPEUTIC AGENTS” (BELLBROOK LABS, LLC, priority 2021, published 2024).
Where two headings read alike, the source gives them in different places.

Assays:
[1] = tested on: MDCK cells expressing human MDR1 (P-glycoprotein); assay: MDCK-MDR1 permeability A→B; type: in vitro ADME, Canine
Method: ADME studies: Compound A and the compounds of the disclosure were tested for aqueous solubility (KSOL), metabolic stability (human and mouse […]) and permeability (Caco-2 and/or MDR1-MDCK cells) to provide an initial indication of oral bioavailability.
The favorable physicochemical properties are reflected in promising results in in vitro ADME tests. […] Metabolic stability, which was routinely measured with mouse and human hepatocytes, is outstanding, with t, greater than 2 hours for all of the compounds of the disclosure in which it has been measured. Cell permeability was measured using MDCK cells expressing human MDR1 (P-glycoprotein) to assess passive permeability as well as active transport out of the cell. […] Numerous compounds in Table 1 meet these permeability criteria, which is consistent with their design for TPSA <140 Å^2 and increased lipophilicity.
The MDCK-MDR1 permeability A ->B is shown in Table 2 below, where A represents 5-10 cm/s×10^−6; B represents 1-5 cm/s×10^−6; and C represents <1 cm/ss×10^−6. The metabolic stability half time, in both mouse and human hepatocytes, is also shown in Table 2 below, where A′ represents 100-200 minutes; B′ represents 200-300 minutes; and C′ represents >300 minutes.

[2] = target: cGAS (Homo sapiens, UniProt Q8N884); assay: Transcreener cGAS enzymatic assay (FP); type: biochemical
Chain of cGAS (Q8N884 whole entry): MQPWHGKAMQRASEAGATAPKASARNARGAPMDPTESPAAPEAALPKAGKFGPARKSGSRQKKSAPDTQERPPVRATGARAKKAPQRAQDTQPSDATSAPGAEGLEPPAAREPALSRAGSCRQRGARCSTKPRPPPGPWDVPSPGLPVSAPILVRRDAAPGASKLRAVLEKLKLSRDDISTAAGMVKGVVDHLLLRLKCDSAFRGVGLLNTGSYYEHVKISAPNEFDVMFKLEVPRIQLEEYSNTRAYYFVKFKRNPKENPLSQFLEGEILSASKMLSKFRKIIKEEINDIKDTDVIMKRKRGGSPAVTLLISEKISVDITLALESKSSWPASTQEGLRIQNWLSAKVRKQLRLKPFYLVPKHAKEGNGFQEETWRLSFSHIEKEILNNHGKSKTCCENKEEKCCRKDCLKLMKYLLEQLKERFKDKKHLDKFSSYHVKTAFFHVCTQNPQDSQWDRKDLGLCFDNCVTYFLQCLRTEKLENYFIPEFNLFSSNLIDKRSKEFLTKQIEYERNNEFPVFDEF
Method: Structural, biochemical and biophysical analysis and selectivity profiling: Potency and MOA studies, including Mn^2+ sensitivity, were performed using the Transcreener cGAS enzymatic assay, which is manufactured at BellBrook Labs (Fitchburg, Wisconsin, USA). This homogenous cGAS enzymatic assay was developed with fluorescence polarization (FP) and time-resolved Forster resonance energy transfer (TR-FRET) readouts, as described in International Patent Publication WO 2020/142729, incorporated by reference herein in its entirety. Plates are read on a PHERAstar FSX multimode reader (BMG). The compounds of the disclosure were tested for inhibition of cGAS ([…]) using this cGAS enzymatic assay under standard conditions (100 μM ATP and GTP, 62.5 nM bp ISD, 60 minute reactions), high ATP and GTP (1 mM) to mimic physiological conditions, in the presence of 200 μM MnCl2, and with mouse cGAS under standard conditions.
The IC50 values for FP under standard and under physiological conditions were determined for several exemplary compounds of the invention. The relative activities for FP Standard IC50 are shown in Table 2 below, where A represents <50 nM; B represents 50-100 nM; C represents 100-200 nM; D represents 200 nM-1μM; and E represents 1-10 μM. For the relative activities for FP Physiological IC50, A′ represents <200 nM; B′ represents 200-500 nM; C′ represents 500 nM-1μM; D′ represents 1-5 μM; and E′ represents >5 μM.

[3] = tested on: IFNβ production in THP-1 cells; assay: IFNβ ELISA in THP-1 cells; type: cell-based, human; details: Homo sapiens; THP-1 cells
Text: Cellular assays: The human monocyte cell line THP-1 and human primary PBMCs were used to evaluate the cellular activity of compounds with good biochemical potency. These cells produce a robust cGAS/STING-dependent type I IFN response when stimulated with dsDNA and other pathogen-associated molecular patterns, which was detected using a standard ELISA for IFNβ (R&D Systems). The TBK1 inhibitor, BX-795, which acts downstream of cGAS/STING, was used as a probe.
CETSA was also used to confirm that the compounds are binding to cGAS in cells; THP-1 cells are used for this analysis. Compounds were tested in dose response mode by incubating with cells for 1.5 hours at 37° C., followed by pelleting and re-suspending in PBS, heating to 51.5° C. for 3 min and cooling to room temp. Cells were then lysed, debris, including denatured cGAS, was pelleted and the supernatant was analyzed for soluble cGAS by Western Blot using anti-cGAS primary Ab (Cell Signaling). Band intensity was analyzed using Image J software. Stimulation with cGAMP directly activates STING, circumventing cGAS; this was used to determine if compounds had effects on downstream components of cGAS/STING signaling. The IFN-6 ELISA was used as the primary measure of cellular potency and selectivity (Table 3) and used the reporter gene assays for assessing off-target activity with other pattern recognition receptors.
The ICso values for IFNB ELISA stimulated with THP-1, PBMC, DNA, and cGAMP were determined for several exemplary compounds of the invention, and are provided in Table 3 where A represents <1 μM; B represents 1-2.5 μM; C represents 2.5-10 μM; D represents 10-20 μM; and E represents >20 μM.

[4] = high ATP and GTP (1 mM) to mimic physiological conditions, read-out: IC50 FP Physiological
[5] = standard conditions: 100 μM ATP and GTP, 62.5 nM bp ISD, 60 minute reactions, read-out: IC50 FP Standard

| SMILES | MDCK-MDR Permeability A→B [1] | IC50 [2, 4] | IC50 [2, 5] | IC50 [3] |
| --- | --- | --- | --- | --- |
| Cc1nc(N2C[C@@H](CC(=O)Nc3ccc(N4CCNCC4)cc3)C[C@H]2C(=O)O)c2oc3ccccc3c2n1 [Compound 8, (2S,4R)-1-(2-methylbenzofuro[3,2-d]pyrimidin-4-yl)-4-(2-oxo-2-((4-(piperazin-1-yl)phenyl)amino)ethyl)pyrrolidine-2-carboxylic acid] | C (C represents <1 cm/ss×10^−6) | > 5 µM | 1 to 10 µM | > 20 µM |
| Cc1nc(N2C[C@@H](CC(=O)Nc3ccc(N4CCN(C)CC4)cc3)C[C@H]2C(=O)O)c2oc3ccccc3c2n1 [Compound 9, (2S,4R)-1-(2-methylbenzofuro[3,2-d]pyrimidin-4-yl)-4-(2-((4-(4-methylpiperazin-1-yl)phenyl)amino)-2-oxoethyl)pyrrolidine-2-carboxylic acid] | C (C represents <1 cm/ss×10^−6) | > 5 µM | 1 to 10 µM | > 20 µM |
| Cc1nc(N2C[C@@H](CC(=O)Nc3ccc(-c4cn[nH]c4)cc3)C[C@H]2C(=O)O)c2oc3ccccc3c2n1 [Compound 10, (2S,4R)-4-(2-((4-(1H-pyrazol-4-yl)phenyl)amino)-2-oxoethyl)-1-(2-methylbenzofuro[3,2-d]pyrimidin-4-yl)pyrrolidine-2-carboxylic acid] | C (C represents <1 cm/ss×10^−6) | 0.2 to 0.5 µM | < 0.05 µM | > 20 µM |
| COc1cccc(NC(=O)C[C@H]2C[C@@H](C(=O)O)N(c3nc(C)nc4c3oc3ccccc34)C2)c1 [Compound 13, (2S,4R)-4-(2-((3-methoxyphenyl)amino)-2-oxoethyl)-1-(2-methylbenzofuro[3,2-d]pyrimidin-4-yl)pyrrolidine-2-carboxylic acid] | C (C represents <1 cm/ss×10^−6) | 1 to 5 µM | 0.2 to 1 µM | 10 to 20 µM |
| Cc1nc(N2C[C@@H](CC(=O)Nc3ccccc3C)C[C@H]2C(=O)O)c2oc3ccccc3c2n1 [Compound 17, (2S,4R)-1-(2-methylbenzofuro[3,2-d]pyrimidin-4-yl)-4-(2-oxo-2-(o-tolylamino)ethyl)pyrrolidine-2-carboxylic acid] | C (C represents <1 cm/ss×10^−6) | > 5 µM | 0.2 to 1 µM | > 20 µM |
| Cc1nc(N2C[C@@H](CC(=O)Nc3ccc(-c4ccnc(O)c4)cc3)C[C@H]2C(=O)O)c2oc3ccccc3c2n1 [Compound 48, (2S,4R)-4-(2-((4-(2-hydroxypyridin-4-yl)phenyl)amino)-2-oxoethyl)-1-(2-methylbenzofuro[3,2-d]pyrimidin-4-yl)pyrrolidine-2-carboxylic acid] | – | 0.5 to 1 µM | < 0.05 µM | – |
| Cc1nc(N2C[C@@H](CC(=O)Nc3cccc(-c4c[nH]cn4)c3)C[C@H]2C(=O)O)c2oc3ccccc3c2n1 [Compound 49, (28,4R)-4-(2-((3-(1H-imidazol-4-yl)phenyl)amino)-2-oxoethyl)-1-(2-methylbenzofuro[3,2-d]pyrimidin-4-yl)pyrrolidine-2-carboxylic acid] | – | 0.5 to 1 µM | 0.1 to 0.2 µM | > 20 µM |
| Cc1nc(N2C[C@@H](CC(=O)Nc3ccc(N4CCOC4=O)cc3)C[C@H]2C(=O)O)c2oc3ccccc3c2n1 [Compound 52, (2S,4R)-1-(2-methylbenzofuro[3,2-d]pyrimidin-4-yl)-4-(2-oxo-2-((4-(2-oxooxazolidin-3-yl)phenyl)amino)ethyl)pyrrolidine-2-carboxylic acid] | – | 1 to 5 µM | 0.1 to 0.2 µM | – |
| Cc1nc(N2C[C@@H](CC(=O)Nc3cnc(-c4ccccc4)nc3)C[C@H]2C(=O)O)c2oc3ccccc3c2n1 [Compound 65, (2S,4R)-1-(2-methylbenzofuro[3,2-d]pyrimidin-4-yl)-4-(2-oxo-2-((2-phenylpyrimidin-5-yl)amino)ethyl)pyrrolidine-2-carboxylic acid] | – | 0.5 to 1 µM | 0.05 to 0.1 µM | – |

Continued, values first:

| MDCK-MDR Permeability A→B [1] | IC50 [2, 4] | IC50 [2, 5] | IC50 [3] | SMILES |
| --- | --- | --- | --- | --- |
| C (C represents <1 cm/ss×10^−6) | 0.2 to 0.5 µM | 0.05 to 0.1 µM | > 20 µM | Cc1nc(N2C[C@@H](CC(=O)Nc3cccc(-c4cn[nH]c4)c3)C[C@H]2C(=O)O)c2oc3ccccc3c2n1 [Compound 11, (25,4R)-4-(2-((3-(1H-pyrazol-4-yl)phenyl)amino)-2-oxoethyl)-1-(2-methylbenzofuro[3,2-d]pyrimidin-4-yl)pyrrolidine-2-carboxylic acid] |
| C (C represents <1 cm/ss×10^−6) | > 5 µM | 1 to 10 µM | > 20 µM | COc1ccccc1NC(=O)C[C@H]1C[C@@H](C(=O)O)N(c2nc(C)nc3c2oc2ccccc23)C1 [Compound 14, (28.4R)-4-(2-((2-methoxyphenyl)amino)-2-oxoethyl)-1-(2-methylbenzofuro[3,2-d]pyrimidin-4-yl)pyrrolidine-2-carboxylic acid] |
| – | 1 to 5 µM | 0.1 to 0.2 µM | – | Cc1nc(N2C[C@@H](CC(=O)Nc3ccc(-c4ccc(O)nc4)cc3)C[C@H]2C(=O)O)c2oc3ccccc3c2n1 [Compound 47, (28.4R)-4-(2-((4-(6-hydroxypyridin-3-yl)phenyl)amino)-2-oxoethyl)-1-(2-methylbenzofuro[3,2-d]pyrimidin-4-yl)pyrrolidine-2-carboxylic acid] |
| – | 1 to 5 µM | 0.2 to 1 µM | > 20 µM | Cc1nc(N2C[C@@H](CC(=O)Nc3ccc(N4CCC(O)CC4)cc3)C[C@H]2C(=O)O)c2oc3ccccc3c2n1 [Compound 53, (2S,4R)-4-(2-((4-(4-hydroxypiperidin-1-yl)phenyl)amino)-2-oxoethyl)-1-(2-methylbenzofuro[3,2-d]pyrimidin-4-yl)pyrrolidine-2-carboxylic acid] |
| – | 0.5 to 1 µM | < 0.05 µM | – | Cc1nc(N2C[C@@H](CC(=O)Nc3ccc(-c4cccc(CO)c4)cc3)C[C@H]2C(=O)O)c2oc3ccccc3c2n1 [Compound 59, (2S,4R)-4-(2-((3′-(hydroxymethyl)-[1,1′-biphenyl]-4-yl)amino)-2-oxoethyl)-1-(2-methylbenzofuro[3,2-d]pyrimidin-4-yl)pyrrolidine-2-carboxylic acid] |
| – | 0.2 to 0.5 µM | < 0.05 µM | – | Cc1nc(N2C[C@@H](CC(=O)Nc3ccc(-c4ccc(CO)cc4)cc3)C[C@H]2C(=O)O)c2oc3ccccc3c2n1 [Compound 60, (28.4R)-4-(2-((4′-(hydroxymethyl)-[1,1′-biphenyl]-4-yl)amino)-2-oxoethyl)-1-(2-methylbenzofuro[3,2-d]pyrimidin-4-yl)pyrrolidine-2-carboxylic acid] |
| – | 1 to 5 µM | 0.2 to 1 µM | – | Cc1nc(N2C[C@@H](CC(=O)Nc3ccc(-c4ccccc4)nn3)C[C@H]2C(=O)O)c2oc3ccccc3c2n1 [Compound 64, (2S,4R)-1-(2-methylbenzofuro[3,2-d]pyrimidin-4-yl)-4-(2-oxo-2-((6-phenylpyridazin-3-yl)amino)ethyl)pyrrolidine-2-carboxylic acid] |
